The experiment concerns CEM cells HIV-1 protection, formazan growth assay. The experiment is described as follows: NCI AIDS Antiviral Assay. The conditions noted are these: for pIC50: measured here: growth of uninfected CEM cells. The procedure, abridged:
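Five concentrations of each compound were applied to infected and uninfected human CEM cells. Protection from HIV-1 was judged from growth measured with a soluble formazan assay.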

Molecules are shown by their SMILES. pEC50, pIC50: −log10 of the molar value. Values joined by “and” are separate entries in the source; they are usually repeats but may differ in a detail not shown here. Equal entries are not always repeated. Active and inactive are the calls of the source.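 Rule for the calls: active = compounds giving half or more protection of infected cells from virus-caused growth loss, again on retest; inactive = the rest.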

Usually pEC50 stands for −log10 of the EC50, conventionally taken in molar units. Broadly, the pIC50 is the negative decadic logarithm of the IC50, by convention in mol/L. A lower pIC50 goes with a high IC50. `O=S(=O)(c1ccccc1)C(Br)c1ccccc1` (centres undefined): the pEC50 is less than 3.80 and the pIC50 is less than 3.80.

For `O=c1[nH]c(Nc2cccc(Br)c2)nc2nc[nH]c12`, the pEC50 was less than 3.70 and the negative-log IC50 (pIC50) was less than 4.00. For `CC1(C)CC2=C(CC3C4C=C5CC(C)(C)OC(=O)C5(C4)C23)C(=O)O1` (centres undefined) the same measures were less than 4.06 and less than 4.06.

Take `O=C(O)CC1Sc2ccccc2NC1=O` (centres undefined): the pEC50 was less than 2.95 and the pIC50 was less than 2.95. As for `CC(C)C1CNC(=O)C2(C=NC(C(C)C)CNC(=O)C3(C=N1)CCCO3)CCCO2` (centres undefined), the pEC50 is less than 4.91 and the negative-log IC50 (pIC50) was less than 4.91.

As to `COc1cc(CNC(=O)CCCCCCCC/C=C/Br)ccc1O`, the pEC50 is less than 3.70 and the pIC50 is 4.67.

Take `COc1ccc(C(OCC2OC(n3ccc(Oc4c(F)c(F)c(F)c(F)c4F)nc3=O)CC2OP(OCCC#N)N(C(C)C)C(C)C)(c2ccccc2)c2ccc(OC)cc2)cc1` (centres undefined): the pEC50 was less than 3.70 and the negative logarithm of the IC50 (pIC50) is 4.05. For `Cc1noc(NS(=O)(=O)c2ccc(N=c3c4ccccc4n(-c4ccccc4)c4ccccc34)cc2)c1C`, the result was inactive. For `COCOC1/C=C/CCCCC(=O)C(C)C#CC1` (centres undefined), the pEC50 is less than 3.70 and the pIC50 was 5.14.

Take `CCOC(=O)C1SC(=Nc2ccc(Cl)c(Cl)c2)N=C1C` (centres undefined): the pEC50 is less than 4.94 and the pIC50 was less than 4.94.

As for `C1N2CN3CN1CN(C2)C3.[Cu+2]`, the result was inactive. Turning to `N#CC(C(=O)CCC(=O)Nc1ccc(Cl)c(Cl)c1)c1ccccc1` (centres undefined), the pEC50 was less than 3.16 and the pIC50 was less than 3.16. With `O=C([CH-]C(=O)c1ccccc1)c1ccccc1.[CH-]1CCCCC1.[CH-]1CCCCC1.[CH-]1CCCCC1.[Sn+4]`, the pEC50 is less than 4.22.

Consider `CSc1c(C#N)c(S)[nH]c(=O)c1C#N`, for which the pEC50 is 4.08 and the pIC50 was 3.90. As to `CCCCCCCCCCCCOC(=S)NCCCC`, the result was inactive. On the same count and under the same terms, the entry for `Cc1c(C)[n+](=O)c2ccc(/C=[N+](/[O-])CCO)cc2n1[O-]` is “inactive”. On the same count and under the same terms, the entry for `CC1(C)CC(=O)c2c(ccc(C(=O)C[C@@H](N)CO)c2N)O1` is “inactive”.

With `O=C(OCC1CC(C2(O)CCCCC2)C(=O)O1)c1ccccc1` (centres undefined), the pEC50 was less than 3.70 and the pIC50 was less than 3.70. `Cc1nc2cccc(F)c2c(=O)n1-c1nnc(C(F)(F)F)s1`: the pEC50 was less than 3.70 and the pIC50 is 5.35. With `O=c1n(-c2ccccc2)c(=O)n2n1C1C3C4CCC1C4(Cl)C32` (centres undefined), the pEC50 is less than 4.39 and the pIC50 is less than 4.39. `CC(=N\N=C\c1ccccn1)/C(C)=N/N=C(C)/C(C)=N/N=C(C)/C(C)=N/N=C/c1ccccn1`: the result was inactive. On to `N#Cc1c(=O)n(O)c2ccccc2[n+]1[O-]`, for which the pEC50 was less than 3.70 and the pIC50 was less than 3.70. Turning to `CCOC(=O)Cc1ccc(Nc2nc3ccccc3nc2C(=O)OCC)cc1`, the pEC50 is 4.04 and the pIC50 was less than 3.70. Turning to `CC([C@H]1CCC2[C@@H]3CCC4C(=O)C(NC(=O)c5ccccc5)=CC[C@]4(C)C3CC[C@@]21C)N(C)C` (some centres undefined), the pEC50 was less than 5.36 and the pIC50 is 5.88. Take `O=C=Nc1cc(S(=O)(=O)c2ccc(Cl)c(N=C=O)c2)ccc1Cl`: the pEC50 is less than 3.70 and the pIC50 was less than 3.70. For `CCC[C@H]1[C@H](CCC)[C@@]2(OC(=O)C3=C2CCC=C3)[C@]12OC(=O)C1=C2CCC=C1`, the pEC50 was less than 3.97 and the pIC50 was 4.70.

Consider `CC(C)(C)OC(=O)NCC(CNC(=O)OC(C)(C)C)c1nc(C(N)=O)cs1`, for which the pEC50 is less than 3.70 and the pIC50 is less than 3.70. As to `CN1CCN(C(=O)CCN2c3ccccc3Sc3ccccc32)CC1`, the pEC50 is less than 3.29 and the pIC50 was 3.93. The matching figures for `COc1ccc(CCNC(=O)CCc2ccccc2CO)cc1OC`: less than 3.70 and less than 3.70. `C=CC1=C(C)C(/C=c2\[nH]/c(=C/c3[nH]c(CC4NC(=O)C(C)/C4=C\C)c(C)c3CCC(=O)O)c(CC(=O)O)c2C)=NC1=O` (centres undefined): the pEC50 was less than 2.57 and the pIC50 was less than 2.57. `Cn1c(=O)c2ncc(N)nc2n(C)c1=O`: the pEC50 is less than 4.00 and the negative-log IC50 (pIC50) is less than 4.00. Take `Cc1ccc(S(=O)(=O)N/N=C/c2oc(-c3ccccc3Cl)c(-c3ccccc3Cl)c2[N+](=O)[O-])cc1`: the pEC50 was less than 5.15 and the pIC50 is less than 5.15. For `CN(C(=O)/C=C/c1ccccc1)C1C2CN3CCC(O2)C13` (centres undefined), the result was inactive. As for `CC(=O)ON(OC(C)=O)c1ccc(C)cc1`, the pEC50 is less than 3.70 and the pIC50 was less than 3.70. Take `CN(C)CCNC(=O)c1cnn(C)c1[N+](=O)[O-]`: the pEC50 was less than 3.70 and the pIC50 is less than 3.70. Regarding `O=C1C(NS(=O)(=O)c2ccccc2)=C(n2cnc3ccccc32)C(=O)c2ccccc21`, the pEC50 is less than 3.70 and the pIC50 is 3.84. Take `CCCCN(CCCC)C(=N)OC`: the pEC50 was less than 3.70 and the pIC50 is 4.15. For `Cn1c2ccccc2[n+]2c(N)scc12` the same measures were less than 3.70 and 4.40. For `CC(=O)OCC1OC(n2c(C)c(C)c(C)c(C#N)c2=S)C(OC(C)=O)C(OC(C)=O)C1OC(C)=O` (centres undefined), the pEC50 was less than 3.70 and the pIC50 was less than 3.70. For `Cc1ccc(S(=O)(=O)N2CC(O)C=Cc3ccccc32)cc1` (centres undefined), the pEC50 is less than 3.70 and the pIC50 is 5.50. For `C/C(=N\NC(=O)c1ccncc1)c1cccc(C(F)(F)F)c1` the same measures were less than 4.07 and less than 4.07. The matching figures for `C[N+](C)(C)C=NCCCCCCN=C[N+](C)(C)C`: less than 3.70 and less than 3.70. Regarding `CC1=C(c2cc(C(=O)Nc3cccc(C(F)(F)F)c3)nc(NC#N)n2)Sc2ccccc2N1`, the result was inactive. On the same count and under the same terms, in the case of `O=c1c2ccccc2nc(-c2cccc(Cl)c2)n1NCC1(O)OCC(O)C(O)C1O` (centres undefined) it was “inactive”. For `COc1cc2c(c(OC)c1OC)-c1ccc(OC)c(=O)cc1C(NC(=O)c1ccc(N=[N+]=[N-])cc1)CC2` (centres undefined), the pEC50 was less than 3.70 and the pIC50 was 5.23. On to `Nc1ncnc2c1ncn2C1OC(CO)CC1F` (centres undefined), for which the pIC50 is < 3.70 and 3.72. For the compound `O=C(O)c1ccccc1C(=O)NC(Cc1cccc(NP(=O)(N2CC2)N2CC2)c1)C(=O)O` (centres undefined), the pEC50 is 4.56 and the pIC50 was less than 3.70. For the compound `O=C(/C=C\c1ccccc1)c1ccc(-c2ccc([N+](=O)[O-])cc2)cc1`, the outcome was inactive. Consider `CCCCCCCCCn1ccnc1NCCCCCCNc1nccn1CCCCCCCCC`, for which the pEC50 is less than 5.14 and the pIC50 was 5.44. For `O=C(CCCN1CCC2(CC1)C(=O)NCN2c1ccccc1)c1ccc(F)cc1` the same measures were less than 3.70 and 4.87. Regarding `O=CC1(c2ccccc2)NC(=O)NC1=O` (centres undefined), the pEC50 was less than 3.70 and the pIC50 is less than 3.70.

With `COc1cc(C=O)c(-c2c(C=O)ccc3c2OCO3)c(OC)c1OC`, the pEC50 was less than 3.87 and the pIC50 was 4.70. For `Cc1cc(Nc2ccc(N=Nc3ccc(O)c4ncccc34)cc2)nc(C)n1` the same measures were less than 3.70 and 5.19.

Source of the values: PubChem BioAssay AID179 (DTP/NCI, 2004).
